Data from the supplement of paper PMC10733146.

Assays:
Assay in all cases: viability relative to DMSO control (fraction); higher = less drug effect (more viable cells)
Details in all cases: 48 h
[1] = tested on: primary AML patient cells (S085)
How it was run: (§1)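 The cells were primary mononuclear tumour cells, either fresh or cryopreserved, isolated by Ficoll from blood or bone marrow or derived from processed lymph node. Each well of a 384-well plate received 4 × 10^4 cells onto compounds pre-plated at five concentrations, with one well per concentration. The medium was RPMI-1640 with penicillin/streptomycin, L-glutamine and human serum, and plates stood at 37 °C and 5% CO2 for 48 h. Viability is reported as CellTiter-Glo luminescence relative to the median of 16 inner DMSO wells.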

[2] = tested on: primary FL patient cells (S087)
How it was run: as §1

[3] = tested on: primary MCL patient cells (S053)
How it was run: as §1

[4] = tested on: primary AML patient cells (S019)
How it was run: as §1

[5] = tested on: primary B-PLL patient cells (S016)
How it was run: as §1

[6] = tested on: primary T-PLL patient cells (S008)
How it was run: as §1

[7] = tested on: primary AML patient cells (S009)
How it was run: as §1

[8] = tested on: primary FL patient cells (S022)
How it was run: as §1

[9] = tested on: primary AML patient cells (S091)
How it was run: as §1

[10] = tested on: primary AML patient cells (S011)
How it was run: as §1

[11] = tested on: primary AML patient cells (S025)
How it was run: as §1

[12] = tested on: primary AML patient cells (S012)
How it was run: as §1

[13] = tested on: primary MCL patient cells (S041)
How it was run: as §1

[14] = tested on: primary AML patient cells (S017)
How it was run: as §1

[15] = tested on: primary BL patient cells (S005)
How it was run: as §1

[16] = tested on: primary AML patient cells (S021)
How it was run: as §1

[17] = tested on: primary AML patient cells (S037)
How it was run: as §1

[18] = tested on: primary AML patient cells (S081)
How it was run: as §1

[19] = tested on: primary AML patient cells (S002)
How it was run: as §1

[20] = tested on: primary MCL patient cells (S068)
How it was run: as §1

O=C(O)CSc1cc(NS(=O)(=O)c2ccc(Br)cc2)c2ccccc2c1O [UMI-77]
viability ([1]; 0.024 µM): 0.887 | viability ([1]; 0.12 µM): 1.07 | viability ([1]; 0.6 µM): 0.905 | viability ([1]; 3 µM): 0.834 | viability ([1]; 15 µM): 1.53 | viability ([2]; 0.024 µM): 0.936 | viability ([2]; 0.12 µM): 0.937 | viability ([2]; 0.6 µM): 0.923 | viability ([2]; 3 µM): 0.876 | viability ([2]; 15 µM): 0.256 | viability ([3]; 0.024 µM): 1.07 | viability ([3]; 0.12 µM): 0.99 | viability ([3]; 0.6 µM): 0.818 | viability ([3]; 3 µM): 0.873 | viability ([3]; 15 µM): 0.191 | viability ([4]; 0.024 µM): 1.28 | viability ([4]; 0.12 µM): 1.35 | viability ([4]; 0.6 µM): 1.17 | viability ([4]; 3 µM): 1.24 | viability ([4]; 15 µM): 0.831 | viability ([5]; 0.024 µM): 1.11 | viability ([5]; 0.12 µM): 1.11 | viability ([5]; 0.6 µM): 0.994 | viability ([5]; 3 µM): 1.07 | viability ([5]; 15 µM): 0.778 | viability ([6]; 0.024 µM): 0.976 | viability ([6]; 0.12 µM): 0.968 | viability ([6]; 0.6 µM): 0.91 | viability ([6]; 3 µM): 0.948 | viability ([6]; 15 µM): 0.815 | viability ([7]; 0.024 µM): 0.914 | viability ([7]; 0.12 µM): 0.914 | viability ([7]; 0.6 µM): 0.802 | viability ([7]; 3 µM): 0.571 | viability ([7]; 15 µM): 0.0548 | viability ([8]; 0.024 µM): 0.967 | viability ([8]; 0.12 µM): 0.981 | viability ([8]; 0.6 µM): 0.913 | viability ([8]; 3 µM): 0.897 | viability ([8]; 15 µM): 0.521 | viability ([9]; 0.024 µM): 1.02 | viability ([9]; 0.12 µM): 1.03 | viability ([9]; 0.6 µM): 1.13 | viability ([9]; 3 µM): 1.32 | viability ([9]; 15 µM): 0.996 | viability ([10]; 0.024 µM): 0.457 | viability ([10]; 0.12 µM): 0.654 | viability ([10]; 0.6 µM): 0.618 | viability ([10]; 3 µM): 0.47 | viability ([10]; 15 µM): 0.227 | viability ([11]; 0.024 µM): 1.06 | viability ([11]; 0.12 µM): 1.08 | viability ([11]; 0.6 µM): 1.03 | viability ([11]; 3 µM): 1.18 | viability ([11]; 15 µM): 0.46 | viability ([12]; 0.024 µM): 1.07 | viability ([12]; 0.12 µM): 1.06 | viability ([12]; 0.6 µM): 1.09 | viability ([12]; 3 µM): 1.04 | viability ([12]; 15 µM): 0.715 | viability ([13]; 0.024 µM): 0.968 | viability ([13]; 0.12 µM): 0.986 | viability ([13]; 0.6 µM): 0.955 | viability ([13]; 3 µM): 0.929 | viability ([13]; 15 µM): 0.331 | viability ([14]; 0.024 µM): 1.01 | viability ([14]; 0.12 µM): 1.02 | viability ([14]; 0.6 µM): 0.983 | viability ([14]; 3 µM): 0.99 | viability ([14]; 15 µM): 0.436 | viability ([15]; 0.024 µM): 0.92 | viability ([15]; 0.12 µM): 0.902 | viability ([15]; 0.6 µM): 0.783 | viability ([15]; 3 µM): 0.812 | viability ([15]; 15 µM): 0.276 | viability ([16]; 0.024 µM): 0.839 | viability ([16]; 0.12 µM): 0.917 | viability ([16]; 0.6 µM): 0.971 | viability ([16]; 3 µM): 0.961 | viability ([16]; 15 µM): 0.623 | viability ([17]; 0.024 µM): 1.05 | viability ([17]; 0.12 µM): 1.04 | viability ([17]; 0.6 µM): 0.985 | viability ([17]; 3 µM): 0.978 | viability ([17]; 15 µM): 0.633 | viability ([18]; 0.024 µM): 0.934 | viability ([18]; 0.12 µM): 0.984 | viability ([18]; 0.6 µM): 0.919 | viability ([18]; 3 µM): 0.812 | viability ([18]; 15 µM): 0.329 | viability ([19]; 0.024 µM): 0.893 | viability ([19]; 0.12 µM): 0.926 | viability ([19]; 0.6 µM): 0.948 | viability ([19]; 3 µM): 0.937 | viability ([19]; 15 µM): 1.03 | viability ([20]; 0.024 µM): 0.957 | viability ([20]; 0.12 µM): 0.817 | viability ([20]; 0.6 µM): 0.767 | viability ([20]; 3 µM): 0.666 | viability ([20]; 15 µM): 0.318
